In data set [1] the test system is children with ASD. Nature of the data set: Toleration of study medications / adverse effects. The source says: The participants were given oral vancomycin (a non-absorbable broad spectrum antibiotic that stays in the GI tract) for 2 weeks to reduce levels of pathogenic bacteria, and then 1 day of low-volume colonoscopy prep MoviPrep® (a drink that flushes the bowels, to remove most remaining gut bacteria and vancomycin) to clear the residual vancomycin and feces. The vancomycin was intended to kill off harmful bacteria, the fasting was intended to remove any remaining bacteria and to minimize other luminal fecal material, and the colon cleanse helped remove the vancomycin and cleanse the lower GI Tract.
The rectal dose was administered under the direct supervision of the study physician, and the first oral dose was similarly administered in the presence of the physician. Participants were randomly assigned to either the oral or rectal route of administration. If one administration route was not tolerated, or if the family preferred the other route, then participants had the option of trying the other route. For the participants with initial oral dose, a lower oral maintenance dose (2.5×10^9 CFU) was followed for 8 weeks right after the major oral initial dose. Whereas, the major rectal initial dose was followed by waiting period of 1 week followed by a lower oral maintenance dose (2.5×10^9 CFU) for 7 weeks. The maintenance SHGM dose were self-administered orally every day up to week 10. After treatment was stopped, participants were monitored for another 8 weeks.
Prilosec (omeprazole) was administered daily to reduce stomach acid and thereby increase viability of the MTT, starting on the 12th day of oral vancomycin treatment and continuing until the end of the maintenance dose.

In data set [2] the test system is children with ASD. In words: Complete Blood Count / blood chemistry panel. It is filed as in vivo, human. The source says:
The following minor changes were observed. There was a 5% decrease in potassium (p=0.01) from beginning to end of treatment, but all levels remain in the normal range. After the vancomycin (2nd week of study), there was a 8% increase in platelets (p=0.03). Four subjects had elevated levels at start, and only 2 had elevated levels after vancomycin. There was a 26% drop in blood urea nitrogen (BUN) (p=0.002), but all stayed in normal range. There was a 6% increase in albumin to globulin (A/G) ratio (p=0.03), with 1 slightly elevated. There was a 17% increase in aspartate amino transferase (AST) (p=0.01), but all remained in normal range. There was a 24% increase in alanine amino transferase (ALT) (p=0.003), where 1 remained elevated and 2 became slightly elevated. […] Slight changes (1-2%) in red blood cell indices (Mean corpuscular volume (MCV), Mean corpuscular hemoglobin (MCH), Mean corpuscular hemoglobin concentration (MCHC), and Red cell distribution width (RDW)) were observed.

Where [3] appears, read: human, in vivo, 40 mg/kg per day.

As for `COc1ccc2[nH]c([S+]([O-])Cc3ncc(C)c(OC)c3C)nc2c1` (stereo not drawn) [Prilosec, omeprazole], the “toleration of study medication” value in the data set with children with ASD [1] (in vivo) is “generally well-tolerated”.

Turning to `CN[C@H](CC(C)C)C(=O)N[C@H]1C(=O)N[C@@H](CC(N)=O)C(=O)N[C@H]2C(=O)N[C@H]3C(=O)N[C@H](C(=O)N[C@H](C(=O)O)c4cc(O)cc(O)c4-c4cc3ccc4O)[C@H](O)c3ccc(c(Cl)c3)Oc3cc2cc(c3O[C@@H]2O[C@H](CO)[C@@H](O)[C@H](O)[C@H]2O[C@H]2C[C@](C)(N)[C@H](O)[C@H](C)O2)Oc2ccc(cc2Cl)[C@H]1O` [vancomycin], the “platelets, BUN, A/G, AST, ALT” value in the data set with children with ASD [2] (3rd and 4th tests) was “returned to similar to baseline”. In addition, in the data set with children with ASD [2] (after the vancomycin), the “increase in alanine amino transferase (ALT)” value amounted to 24% and the “increase in albumin to globulin (A/G) ratio” value was determined as 6%. Besides, the increase in platelets in the data set with children with ASD [2] (after the vancomycin (2nd week of study)) stood at 8%. Also, the “increase in aspartate amino transferase (AST)” value in the data set on children with ASD [2] (after the vancomycin, all remained in normal range) is 17%. Besides, the “drop in blood urea nitrogen (BUN)” value with children with ASD [2] (after the vancomycin, all stayed in normal range) came out at 26%. In the data set on children with ASD [1] (setting [3]), the “duration of behavioral reaction in most cases” value fell in the range of 1 to 3 days and the “onset of behavioral reaction after start of vancomycin” value is 1 to 4 days. Further, in the data set with children with ASD [1] (hyperactivity, tantrumming/aggression), the “severity of behavioral symptoms” value is on record as “mild to moderate”. For the same compound, the “duration of behavioral symptoms in 1 participant” value in the data set with children with ASD [1] (longest case) was 3 weeks. Also, the children developing rash result in the data set on children with ASD [1] (oral vancomycin with natural orange flavor, 18 children) is “One and one”. Moreover, the adverse effects overall entry with children with ASD [1] (primarily mild to moderate hyperactivity and tantrums/aggression) is “only temporary adverse effects”. In the data set with children with ASD [1] (temporary, start of vancomycin), the “cases of increased hyperactivity” value is 7 and the “cases of increased tantrums/aggression” value is given as 5.

Values taken from patent US20190328825A1, “METHODS FOR TREATING AUTISM SPECTRUM DISORDER AND ASSOCIATED SYMPTOMS” (Arizona Board of Regents on behalf of Arizona State …, priority 2015, published 2019).
